The results in this text go back to PubChem BioAssay AID256 (DTP/NCI, 2004).

Molecules are shown by their SMILES. “And” between values parts separate entries of the source, which are not always exact repeats. Identical values can stand only once. Toxic doses and inconclusive results are not listed.

The subject of the experiment is CD2F1 mice, L1210 leukemia ip, survival T/C. Put plainly: NCI In Vivo Anticancer Drug Screen. Data for tumor model L1210 Leukemia (intraperitoneal) in CD2F1 (CDF1) mice. The conditions noted are these: higher = longer survival. In a few lines:
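Each value reflects a quotient of treated over vehicle control outcomes in mice with a transplanted tumor.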

The mark [1] stands for this setting: endpoint: mean survival time, dose: 50.0 mg/kg/injection, schedule: Q01DX009 (ip), vehicle: saline with Tween-80.
[2] abbreviates: endpoint: mean survival time, dose: 100.0 mg/kg/injection, schedule: Q01DX001 (ip), vehicle: saline.
Setting [3] is: endpoint: mean survival time, dose: 100.0 mg/kg/injection, schedule: Q01DX009 (ip), vehicle: saline with Tween-80.
Where [4] appears, read: endpoint: mean survival time, dose: 200.0 mg/kg/injection, schedule: Q01DX001 (ip), vehicle: saline.
[5] abbreviates: endpoint: mean survival time, dose: 200.0 mg/kg/injection, schedule: Q01DX009 (ip), vehicle: saline with Tween-80.
[6] abbreviates: endpoint: mean survival time, dose: 400.0 mg/kg/injection, schedule: Q01DX001 (ip), vehicle: saline.
Where [7] appears, read: endpoint: mean survival time, dose: 100.0 mg/kg/injection, schedule: Q01DX001 (ip), vehicle: saline with Tween-80.
The mark [8] stands for this setting: endpoint: mean survival time, dose: 200.0 mg/kg/injection, schedule: Q01DX001 (ip), vehicle: saline with Tween-80.
[9] abbreviates: endpoint: mean survival time, dose: 400.0 mg/kg/injection, schedule: Q01DX001 (ip), vehicle: saline with Tween-80.
Where [10] appears, read: endpoint: mean survival time, dose: 400.0 mg/kg/injection, schedule: Q01DX009 (ip), vehicle: saline with Tween-80.
The mark [11] stands for this setting: endpoint: mean survival time, dose: 100.0 mg/kg/injection, schedule: Q04DX003 (ip), vehicle: saline with Tween-80.
Where [12] appears, read: endpoint: mean survival time, dose: 200.0 mg/kg/injection, schedule: Q04DX003 (ip), vehicle: saline with Tween-80.
Setting [13] is: endpoint: mean survival time, dose: 400.0 mg/kg/injection, schedule: Q04DX003 (ip), vehicle: saline with Tween-80.

`CCO/N=C(\N)c1ccccc1`: the T/C was 106 % of control under setting [1]; 111 % of control under setting [2]; 98 % of control under setting [3]; 108 % of control under setting [4]; 100 % of control under setting [5]; 104 % of control under setting [6].

For the compound `Cn1c(=O)c2c(n(C)c1=O)n1cnnc1n2C`, the T/C is, setting by setting: (endpoint: mean survival time, dose: 12.5 mg/kg/injection, schedule: Q01DX005 (ip), vehicle: distilled water + Tween-80) 95 % of control; (endpoint: mean survival time, dose: 25.0 mg/kg/injection, schedule: Q01DX005 (ip), vehicle: distilled water + Tween-80) 100 % of control; (endpoint: mean survival time, dose: 50.0 mg/kg/injection, schedule: Q01DX005 (ip), vehicle: distilled water + Tween-80) 100 % of control; (endpoint: mean survival time, dose: 100.0 mg/kg/injection, schedule: Q01DX005 (ip), vehicle: distilled water + Tween-80) 100 % of control; (endpoint: mean survival time, dose: 200.0 mg/kg/injection, schedule: Q01DX005 (ip), vehicle: distilled water + Tween-80) 89 % of control.

`NCC(F)(F)C(F)(F)C(F)(F)CN`: the T/C by setting is: under setting [1], 98 % of control; under setting [3], 107 % of control; under setting [5], 103 % of control.

Consider `S=c1sc2ccccc2n1CN1CCCCC1`, for which the T/C under setting [7] is 100 % of control, the T/C under setting [8] was 100 % of control and the T/C under setting [9] is 108 % of control.

As to `NC(=O)c1cc(=O)[nH]o1`, the T/C is, setting by setting: under setting [3], 102 % of control; under setting [5], 96 % of control; under setting [10], 107 % of control.

On to `CSCCC(NC(=O)COc1ccc(Cl)cc1Cl)C(=O)O` (stereo unspecified), for which the T/C is, setting by setting: (endpoint: mean survival time, dose: 50.0 mg/kg/injection, schedule: Q01DX009 (ip), vehicle: Klucel (hydroxypropylcellulose) (HPC)) 100 % of control; (endpoint: mean survival time, dose: 100.0 mg/kg/injection, schedule: Q01DX009 (ip), vehicle: Klucel (hydroxypropylcellulose) (HPC)) 89 % of control; (endpoint: mean survival time, dose: 200.0 mg/kg/injection, schedule: Q01DX009 (ip), vehicle: Klucel (hydroxypropylcellulose) (HPC)) 91 % of control.

With `COc1cc(NC(=O)Nc2ccc(S(N)(=O)=O)cc2)c(Cl)c(OC)c1`, the T/C runs as follows: under setting [3], 95 % of control; under setting [5], 95 % of control; under setting [10], 104 % of control.

As for `CCCCC(OC(=O)Nc1cccc2ccccc12)C(C)C` (stereo unspecified), the T/C was 91 % of control under setting [11] and 88 % of control under setting [12].

Turning to `CC(=O)OCC(OC(C)=O)C1OC(OCc2ccccc2)C(OC(C)=O)C(OC(C)=O)C1OC(C)=O` (stereo unspecified), the T/C reads like this: under setting [7], 95 % of control; under setting [8], 86 % of control; under setting [9], 88 % of control.

Turning to `COC(=O)C1OC(OC(C)=O)C(OC(C)=O)C(OC(C)=O)C1OC(C)=O` (stereo unspecified), the T/C was 98 % of control (endpoint: mean survival time, dose: 75.0 mg/kg/injection, schedule: Q04DX003 (ip), vehicle: saline with Tween-80); 98 % of control (endpoint: mean survival time, dose: 150.0 mg/kg/injection, schedule: Q04DX003 (ip), vehicle: saline with Tween-80); 92 % of control (endpoint: mean survival time, dose: 300.0 mg/kg/injection, schedule: Q04DX003 (ip), vehicle: saline with Tween-80).

Regarding `COc1ccc(/C=C/c2ccc([N+](=O)[O-])cc2)cc1`, the T/C runs as follows: under setting [11], 102 % of control; under setting [12], 100 % of control; under setting [13], 100 % of control.

Turning to `O=C1CCCCc2c1ccc(O)c2[N+](=O)[O-]`, the T/C by setting is: (endpoint: mean survival time, dose: 12.5 mg/kg/injection, schedule: Q01DX009 (ip), vehicle: saline) 113 % of control; (endpoint: mean survival time, dose: 25.0 mg/kg/injection, schedule: Q01DX009 (ip), vehicle: saline) 106 % of control; (endpoint: mean survival time, dose: 50.0 mg/kg/injection, schedule: Q01DX009 (ip), vehicle: saline) 97 % of control.

`CN(Cc1cnc2nc(N)nc(N)c2n1)c1ccc(C(=O)NC(CCC(=O)O)C(=O)NC(CCC(=O)O)C(=O)O)cc1` (stereo unspecified): the T/C was 105 % of control (endpoint: mean survival time, dose: 1.0 mg/kg/injection, schedule: Q01DX009 (ip), vehicle: sodium bicarbonate); 100 % of control (endpoint: mean survival time, dose: 2.0 mg/kg/injection, schedule: Q01DX009 (ip), vehicle: sodium bicarbonate); 102 % of control (endpoint: mean survival time, dose: 5.0 mg/kg/injection, schedule: Q01DX009 (ip), vehicle: sodium bicarbonate); 167 % of control (endpoint: mean survival time, dose: 25.0 mg/kg/injection, schedule: Q01DX009 (ip), vehicle: sodium bicarbonate).

As to `CC1(C)N=C(N)N=C(N)N1c1cccc(Cl)c1Cl`, the T/C runs as follows: (endpoint: mean survival time, dose: 5.0 mg/kg/injection, schedule: Q04DX003 (ip), vehicle: saline) 105 % of control; (endpoint: mean survival time, dose: 10.0 mg/kg/injection, schedule: Q04DX003 (ip), vehicle: saline) 112 % of control; (endpoint: mean survival time, dose: 20.0 mg/kg/injection, schedule: Q04DX003 (ip), vehicle: saline) 115 % of control.

For `CO[C@@]12[C@@H]3N[C@@H]3CN1C1=C(C(=O)C(NCC3CCCO3)=C(C)C1=O)[C@@H]2COC(N)=O` (stereo partly specified), the T/C (endpoint: mean survival time, dose: 1.5 mg/kg/injection, schedule: Q01DX001 (ip), vehicle: distilled water + Tween-80) was 111 % of control; the T/C (endpoint: mean survival time, dose: 3.0 mg/kg/injection, schedule: Q01DX001 (ip), vehicle: distilled water + Tween-80) was 114 % of control and 116 % of control; the T/C (endpoint: mean survival time, dose: 6.0 mg/kg/injection, schedule: Q01DX001 (ip), vehicle: distilled water + Tween-80) was 121 % of control; the T/C (endpoint: mean survival time, dose: 36.0 mg/kg/injection, schedule: Q01DX001 (ip), vehicle: distilled water + Tween-80) is 158 % of control.

As to `O=C(NCCNC(=O)Nc1ccccc1Cl)Nc1ccccc1Cl`, the T/C was 104 % of control (endpoint: mean survival time, dose: 100.0 mg/kg/injection, schedule: Q04DX002 (ip), vehicle: saline with Tween-80); 97 % of control (endpoint: mean survival time, dose: 200.0 mg/kg/injection, schedule: Q04DX002 (ip), vehicle: saline with Tween-80); 101 % of control (endpoint: mean survival time, dose: 400.0 mg/kg/injection, schedule: Q04DX002 (ip), vehicle: saline with Tween-80).

With `COc1cc2c(cc1OC)C(Cc1ccccc1NC(=O)c1ccc(C(=O)Nc3ccccc3CC3c4cc(OC)c(OC)cc4CCN3C)cc1)N(C)CC2` (stereo unspecified), the T/C is 97 % of control under setting [2], 94 % of control under setting [4] and 91 % of control under setting [6].

For the compound `OCCN1CCCCCCC1`, the T/C by setting is: (endpoint: mean survival time, dose: 75.0 mg/kg/injection, schedule: Q01DX001 (ip), vehicle: saline) 95 % of control; (endpoint: mean survival time, dose: 150.0 mg/kg/injection, schedule: Q01DX001 (ip), vehicle: saline) 102 % of control.

For `CC1(C)OC2COC(OCc3ccccc3)C(OCc3ccccc3)C2O1` (stereo unspecified), the T/C reads like this: under setting [3], 104 % of control; under setting [5], 101 % of control; under setting [10], 96 % of control.

As for `O=C(O)CS(=O)(=O)c1ccc(Cl)cc1`, the T/C by setting is: (endpoint: mean survival time, dose: 100.0 mg/kg/injection, schedule: Q01DX001 (ip), vehicle: Klucel (hydroxypropylcellulose) (HPC)) 111 % of control; (endpoint: mean survival time, dose: 200.0 mg/kg/injection, schedule: Q01DX001 (ip), vehicle: Klucel (hydroxypropylcellulose) (HPC)) 103 % of control; (endpoint: mean survival time, dose: 400.0 mg/kg/injection, schedule: Q01DX001 (ip), vehicle: Klucel (hydroxypropylcellulose) (HPC)) 100 % of control.

`CCC(CO)(CO)[N+](=O)[O-]`: the T/C is, setting by setting: (endpoint: mean survival time, dose: 100.0 mg/kg/injection, schedule: Q01DX009 (ip), vehicle: saline) 100 % of control; (endpoint: mean survival time, dose: 200.0 mg/kg/injection, schedule: Q01DX009 (ip), vehicle: saline) 100 % of control; (endpoint: mean survival time, dose: 400.0 mg/kg/injection, schedule: Q01DX009 (ip), vehicle: saline) 94 % of control.

In the case of `COc1ccc2oc(-c3ccc(Cl)cc3)c(N3CCN(C)CC3)c2c1`, the T/C reads like this: (endpoint: median survival time, dose: 15.0 mg/kg/injection, schedule: Q01DX005 (ip), vehicle: saline) 104 % of control; (endpoint: median survival time, dose: 30.0 mg/kg/injection, schedule: Q01DX005 (ip), vehicle: saline) 103 % of control; (endpoint: median survival time, dose: 60.0 mg/kg/injection, schedule: Q01DX005 (ip), vehicle: saline) 100 % of control; (endpoint: median survival time, dose: 120.0 mg/kg/injection, schedule: Q01DX005 (ip), vehicle: saline) 107 % of control; (endpoint: median survival time, dose: 240.0 mg/kg/injection, schedule: Q01DX005 (ip), vehicle: saline) 119 % of control.

On to `CC(C)CC(Br)C(=O)NC(CC(C)C)C(=O)O` (stereo unspecified), for which the T/C reads like this: under setting [11], 95 % of control; under setting [12], 105 % of control; under setting [13], 94 % of control.
